In US6468995B1, “Cephem compounds” (Fujisawa Pharmaceutical Co., Ltd., priority 1993, dated 2002):

Assay: Stability test of the crystal
Assay type: physicochemical
Conditions: crystal containing 1/3 isopropanol

For `Nc1nc(/C(=N/O)C(=O)N[C@@H]2C(=O)N3C(C(=O)O)=C(SCc4cn[nH]c4)CS[C@H]23)cs1` [Example 37, 7β-[2-(2-aminothiazol-4-yl)-2-(Z)-(hydroxyimino)acetamido]-3-[(pyrazol-4-yl)methylthio]-3-cephem-4-carboxylic acid containing 1/3 isopropanol], the “stability in the stability test” value was “stable”.
